These results are taken from US6906061B2, “Pharmaceutical agent containing Rho kinase inhibitor” (Mitsubishi Pharma Corporation, priority 1996, dated 2005).

The target in data set [1] is T1, Human Platelet Rho Kinase (p160ROCK) (Homo sapiens, UniProt Q13464).
T1 construct: Human platelet p160ROCK was isolated by the method of Ishizaki et al; from tissue; host or cells: human platelets
Put plainly: Rho kinase inhibitory action (inhibition of human platelet Rho kinase (p160ROCK)). In kind it is biochemical. The note with it: histone substrate, 1 μM ATP. Here is the method:
Rho Kinase Inhibitory Action (Inhibition of Human Platelet Rho Kinase (p160ROCK))
(§1) Kinase assay included the following steps. That is, a reaction mixture (total amount 30 μl) containing 50 mM Hepes-NaOH (pH=7.4), 10 mM MgCl2, 5 mM MnCl2, 2 mM dithiothreitol, 0.02% Brij35, 1 μM [γ-^32P]ATP, 330 μg/ml histone, p160ROCK (2 μl) isolated by the method of Ishizaki et al. and the test compound was incubated at 30° C. for 20 minutes. The solution was mixed with a 1/3 amount of 4× Laemmli sample buffer, boiled for 5 minutes and applied to SDS-PAGE. The gel was stained with Coomassie Brilliant Blue and dried. The band of histone was cut out and assayed for radioactivity.

For another data set, the target named is T2, p160ROCK (Homo sapiens, UniProt Q13464).
T2 construct: made in house; host or cells: COS cells (transient transfection, immunoprecipitated with 9E10 anti-myc antibody on protein G-Sepharose)
T2 sequence (Q13464 whole entry): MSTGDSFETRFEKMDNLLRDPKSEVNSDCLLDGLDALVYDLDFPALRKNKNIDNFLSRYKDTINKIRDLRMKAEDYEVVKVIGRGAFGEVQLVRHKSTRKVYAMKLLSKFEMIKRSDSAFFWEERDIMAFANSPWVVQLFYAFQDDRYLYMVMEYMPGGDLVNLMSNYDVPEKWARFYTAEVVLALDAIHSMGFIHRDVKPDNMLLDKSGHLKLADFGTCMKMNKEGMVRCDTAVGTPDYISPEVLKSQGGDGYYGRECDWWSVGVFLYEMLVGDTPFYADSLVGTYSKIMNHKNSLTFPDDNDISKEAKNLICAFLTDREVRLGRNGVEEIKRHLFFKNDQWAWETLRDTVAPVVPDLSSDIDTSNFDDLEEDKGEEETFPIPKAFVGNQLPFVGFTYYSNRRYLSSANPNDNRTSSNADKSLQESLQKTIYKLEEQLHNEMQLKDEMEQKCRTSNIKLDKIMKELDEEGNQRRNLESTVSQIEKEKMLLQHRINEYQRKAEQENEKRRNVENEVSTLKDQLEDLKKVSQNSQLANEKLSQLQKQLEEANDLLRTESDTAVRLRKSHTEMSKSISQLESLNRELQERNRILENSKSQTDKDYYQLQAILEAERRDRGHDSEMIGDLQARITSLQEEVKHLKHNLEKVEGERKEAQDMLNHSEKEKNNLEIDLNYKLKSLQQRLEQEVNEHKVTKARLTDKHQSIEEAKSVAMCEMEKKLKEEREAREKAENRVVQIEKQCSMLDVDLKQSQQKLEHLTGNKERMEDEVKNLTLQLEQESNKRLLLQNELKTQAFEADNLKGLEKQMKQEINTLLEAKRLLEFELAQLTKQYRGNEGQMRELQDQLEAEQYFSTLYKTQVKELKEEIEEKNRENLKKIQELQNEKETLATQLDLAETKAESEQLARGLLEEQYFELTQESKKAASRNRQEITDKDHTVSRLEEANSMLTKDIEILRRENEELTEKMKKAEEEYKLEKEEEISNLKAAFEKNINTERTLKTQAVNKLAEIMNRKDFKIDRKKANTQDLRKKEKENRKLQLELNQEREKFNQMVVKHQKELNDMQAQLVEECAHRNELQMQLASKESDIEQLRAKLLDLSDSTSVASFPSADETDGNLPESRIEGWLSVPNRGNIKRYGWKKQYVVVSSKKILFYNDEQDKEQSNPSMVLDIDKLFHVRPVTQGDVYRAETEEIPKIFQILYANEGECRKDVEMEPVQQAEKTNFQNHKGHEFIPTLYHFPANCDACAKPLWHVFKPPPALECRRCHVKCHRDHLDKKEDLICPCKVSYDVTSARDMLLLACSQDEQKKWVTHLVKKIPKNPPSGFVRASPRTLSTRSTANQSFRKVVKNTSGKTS
Put plainly: Inhibition of p160ROCK (myc-tagged, expressed in COS cells). In kind it is biochemical. The note with it: enzyme expressed in COS cells. Here is the method:
as §1
(§2) Rho Kinase Inhibitory Action (Inhibition of p160ROCK and ROCKII)
(§3) COS cells were seeded in a 3.5 cm dish and incubated overnight. […] After incubation for 20 hours, the cells were washed once with ice-cooled PBS, and the cells were lysed on ice for 20 minutes using a lysis buffer (20 mM Tris-HCl (pH=7.5), 1 mM EDTA, 1 mM EGTA, 5 mM MgCl2, 25 mM NaF, 10 mM β glycerophosphate, 5 mM sodium pyrophorphate, 0.2 mM phenylmethylsulfonyl fluoride, 2 mM dithiothreitol, 0.2 mM sodium vanadate, 0.05% Triton X-100, 0.1 μM calyculin A). The lysate was centrifuged at 10,000×g for 10 minutes and the supernatant was recovered. […] Then, protein G-Sepharose was added and the mixture was shaken for 2 more hours. […]

A further data set deals with T3, ROCKII (Mus musculus, UniProt P70336).
T3 construct: made in house; host or cells: COS cells (transient transfection, immunoprecipitated with 9E10 anti-myc antibody on protein G-Sepharose)
T3 sequence (P70336 whole entry): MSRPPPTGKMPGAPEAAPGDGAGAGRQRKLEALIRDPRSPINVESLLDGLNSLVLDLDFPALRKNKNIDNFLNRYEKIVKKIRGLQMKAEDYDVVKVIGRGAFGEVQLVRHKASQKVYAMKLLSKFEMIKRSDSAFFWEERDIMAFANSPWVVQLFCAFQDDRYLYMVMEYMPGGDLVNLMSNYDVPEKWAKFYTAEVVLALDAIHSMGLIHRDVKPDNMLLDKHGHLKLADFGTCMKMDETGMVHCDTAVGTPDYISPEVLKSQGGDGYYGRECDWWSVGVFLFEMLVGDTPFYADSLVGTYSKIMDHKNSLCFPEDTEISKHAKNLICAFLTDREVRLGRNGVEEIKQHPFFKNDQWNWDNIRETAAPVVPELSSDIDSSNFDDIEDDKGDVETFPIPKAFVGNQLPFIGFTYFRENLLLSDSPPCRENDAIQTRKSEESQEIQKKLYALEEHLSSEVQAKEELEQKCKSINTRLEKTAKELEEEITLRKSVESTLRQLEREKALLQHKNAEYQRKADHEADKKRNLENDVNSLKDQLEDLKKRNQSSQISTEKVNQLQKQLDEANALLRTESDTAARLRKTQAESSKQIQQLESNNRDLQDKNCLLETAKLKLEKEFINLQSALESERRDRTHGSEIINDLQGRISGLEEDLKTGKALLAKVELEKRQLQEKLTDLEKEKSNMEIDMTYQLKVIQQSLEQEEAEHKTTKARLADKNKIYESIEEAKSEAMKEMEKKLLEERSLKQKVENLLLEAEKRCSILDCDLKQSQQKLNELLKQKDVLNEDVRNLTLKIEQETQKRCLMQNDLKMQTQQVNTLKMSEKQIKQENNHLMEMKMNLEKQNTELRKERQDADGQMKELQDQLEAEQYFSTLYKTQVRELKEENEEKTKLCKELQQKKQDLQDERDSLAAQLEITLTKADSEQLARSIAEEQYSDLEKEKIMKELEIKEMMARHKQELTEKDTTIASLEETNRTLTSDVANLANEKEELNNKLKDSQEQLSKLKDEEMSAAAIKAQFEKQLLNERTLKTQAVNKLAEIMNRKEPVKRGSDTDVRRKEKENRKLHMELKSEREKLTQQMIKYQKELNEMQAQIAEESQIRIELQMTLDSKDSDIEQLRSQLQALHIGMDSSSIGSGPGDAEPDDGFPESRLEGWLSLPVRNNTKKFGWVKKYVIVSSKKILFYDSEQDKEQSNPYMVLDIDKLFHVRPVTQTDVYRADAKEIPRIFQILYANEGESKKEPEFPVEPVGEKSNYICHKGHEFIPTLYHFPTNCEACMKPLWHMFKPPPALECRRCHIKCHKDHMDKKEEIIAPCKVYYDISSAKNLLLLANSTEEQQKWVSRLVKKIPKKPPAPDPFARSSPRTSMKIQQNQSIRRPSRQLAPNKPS
Put plainly: Inhibition of ROCKII (myc-tagged, expressed in COS cells). In kind it is biochemical. The following applies: enzyme expressed in COS cells; read-out: IC50 (μM) ROCK-II. Here is the method:
as §1, §2, §3

For data set [2], the system named is CEM cells (human T cell type established cell). Put plainly: Inhibition of VLA integrin activation (phorbol ester-induced adhesion of CEM cells to fibronectin). In kind it is cell-based. The following applies: CCRF-CEM, PMA-induced adhesion, read-out: Adhesion induction inhibition (%). Here is the method:
Inhibition of VLA (Very Late Antigen) Integrin Activation
As the index of the activation by VLA integrin, phorbol ester-induced adhesion of CEM cells (human T cell type established cell) to fibronectin, which is a ligand of VIA integrin, was measured. The inhibitory action on the induced adhesion by the test compound was determined by the following method.
CEM cells were washed with RPMI1640 medium containing 0.5% bovine serum albumin (BSA), 10 mM HEPES, 2 mM L-glutamin, 1 mM sodium pyruvate, 60 μg/ml kanamycin sulfate and 1.5 mg/ml sodium hydrogencarbonate (hereinafter this medium is referred to as culture solution) and suspended in this medium for use in the following experiment. To each well of a 96 well plate coated with human fibronectin were added CEM cells (5×10^4) and the test compound dissolved in the culture solution (final concentration 1-100 μM) to the amount of 100 μl, and the plate was stood at 37° C. for 1 hour. Then, PMA (phorbol 12-myristate 13-acetate, TPA; final concentration 10 ng/ml) and the test compound were added to the amount of 200 μl, and the plate was stood at 37° C. for 30 minutes. Each well was washed twice with the culture solution (200 μL) at 37° C., and the LDH (lactate dehydrogenase) activity of the cells adhered to the plate was determined, whereby the amount of the adhered cell was measured. Based on the results obtained by the above-mentioned method, the inhibitory action of the test compound on the induced adhesion was calculated by the following formula The results are shown in Table 6. Inhibition (%) of adhesion induction=(a−b)/(a−c)×100 • a=number of cells adhered with the addition of PMA • b=number of cells adhered with the addition of test compound and PMA • c=number of cells adhered without stimulation

Another data set deals with mouse femoral bone. Put plainly: Inhibition of bone resorption (in vitro), mouse femoral bone. The note with it: 144 h, 6 days incubation of ICR mouse femoral bone. Here is the method:
Inhibition of Bone Resorption (in vitro)
The determination of the in vitro inhibition of bone resorption using mouse femoral bone followed the method below.
The femoral bone of 3-6 week old male ICR mice was aseptically removed, and bone marrow cavity was washed with F12 medium, containing 10% heat inactivated fetal bovine serum, penicillin G calcium (100 units/ml), kanamycin sulfate (60 μg) and 0.15% sodium hydrogencarbonate (hereinafter the medium is to be referred to as culture solution). After washing the bone marrow cavity and then removing the soft tissue adhered to the bone, the bone was subjected to incubation. The test compound was once dissolved in dimethyl sulfoxide (DMSO) to give a 10 mg/ml solution, which was diluted 1000-fold with the culture solution to give a 10 μg/ml solution. The test compounds were respectively added to the concentration shown in Table 7 and, using this culture solution (1.2 ml), the ICR mouse femoral bone was incubated in a 24 well plate for 6 days under the conditions of 5% CO2 gas, 95% air. After the completion of the incubation, the culture supernatant was recovered, and the amount of calcium suspending in the culture supernatant was quantitatively determined by the chelate method using o-cresolphthalein. The bone resorption inhibitory action of the test compound was calculated by the following formula using the incubation of the femoral bone without addition of the test compound as a control. [formula] This experiment was done with 4 cases in each group. As the control, the same amount of DMSO alone as in the case with the addition of the test compound was used.

The next data set relates to ddY mice. Put plainly: Acute toxicity in ddY mice. In kind it is in vivo. The following applies: intraperitoneal administration at 30 mg/kg, monitored for 5 days. From the text:
The compound 109.2HCl and compound 143.2HCl.H2O were respectively administered intraperitoneally to ddY mice and the mice were monitored for 5 days.

The test system of data set [3] is Bovine Aorta Thoracia Rho Kinase. Put plainly: Rho kinase inhibitory action (inhibition of bovine aorta thoracia Rho kinase). In kind it is biochemical. The note with it: test compound 10 μM. Here is the method: Rho Kinase Inhibitory Action (Inhibition of Bovine Aorta Thoracia Rho Kinase)
The Rho kinase was prepared from bovine aorta of thorax by partial purification as in the following. The artery was minced and homogenized with a 9-fold amount of 50 mM Tris-hydroxymethylaminomethane (Tris) (pH=7.4), 1 mM dithiothreitol, 1 mM EGTA, 1 mM EDTA, 100 μM p-amidinophenylmethylsulfonyl fluoride, 5 μM E-64, 5 μM leupeptine and 5 μM pepstatin A. The homogenate was centrifuged (10,000×g, 30 minutes) to give supernatant. The supernatant was adsorbed onto a hydroxyapatite column. The column was washed with 0.2M phosphate buffer (pH=6.8). The standard product of Rho kinase was eluted with 0.4M phosphate buffer (pH=6.8). The Rho kinase was assayed as follows.
A reaction mixture (total amount 50 μl) containing 50 mM Tris, 1 mM EDTA, 5 mM MgCl2, 50 μg/ml histone, 10 μM GTPγS, 100 μg/ml Rho, 2 μM [^32P]ATP, the Rho kinase (3 μl) prepared in the above and the test compound was reacted at 30° C. for 5 minutes. The reaction was terminated by the addition of 25% trichloroacetic acid (TCA) solution (1 ml) and the mixture was stood at 4° C. for 30 minutes. Then, the mixture was filtered through a membrane filter (HAWP type, Millipore), and the radioactivity of the filter was counted on a liquid scintillation counter. The inhibitory action of the test compound was calculated from the following formula based on the comparison of the radioactivity with the sample without the test compound (control).

Data set [4] concerns thoractic aorta ring contracted with phenylephrine. Put plainly: Vasodilating action on phenylephrine-contracted thoracic aorta rings. The following applies: Oryctolagus cuniculus; rabbit aortic ring, phenylephrine 10^−6 M contraction; concentration for 50% relaxation; read-out: Vasorelaxing action. On the procedure:
Male rabbits (body weight 1.9-3.0 kg) were anesthetized with pentobarbital sodium and exsanguinated, whereafter thoractic aorta was removed. An about 2 mm width aortic ring samples were prepared and hung in a Magnus bath (40 ml) filled with Krebs-Henseleit solution (37° C., NaCl 117 mM; KCl 4.7 mM; CaCl2 2.5 mM; MgSO4 1.2 mM; NaHCO3 24.8 mM; KH2PO4 1.2 mM; glucose 11.0 mM) at a load of 2 g. The Magnus bath was constantly bubbled with a mixed gas (95% O2+5% CO2 gas). The tension of the preparation was measured with an isomeric transducer (TB-611T, Nippon Koden). The preparation was contracted with phenylephrine (10^−6 M) and, after the contraction was stabilized, the test compound was added accumulatively and relaxing action was observed.

In data set [5] the test system is trachea specimen contracted with acetylcholine. Kind of data set: Effect on contraction by acetylcholine of trachea specimen removed from guinea pig. The note with it: Cavia porcellus, acetylcholine 10^−6 M contraction, 50% relaxation vs papaverine 10^−4 M maximum, read-out: Trachea relaxing action.
Experimental: Male Hartley guinea pigs (body weight 260-390 g) were anesthetized by the peritoneal administration of pentobarbital sodium (100 mg/kg) and exsanguinated, whereafter trachea was removed. The anterior cartilage of the trachea was opened and the band was cut in a 3 mm width strip to give a specimen. The specimen was hung in a Magnus bath (40 ml) filled with Krebs-Henseleit solution (NaCl 117 mM; KCl 4.7 mM; CaCl2 2.5 mM; MgSO4 1.2 mM; NaHCO3 24.8 mM; KH2PO4 1.2 mM; glucose 11.0 mM) at a load of 1 g. The Magnus bath was constantly bubbled with a mixed gas (95% O2+5% CO2 gas). The tension of the strip was measured with an isomeric transducer (TB-611T, Nippon Koden) and depicted on a recorder (Ti-102, Tokai Irika).
The subject of data set [6] is hind limb skin blood flow. Kind of data set: Peripheral blood flow increasing action in STZ-induced diabetic rats. In kind it is in vivo, rat. The note with it: intravenous. On the procedure: Peripheral Blood Flow Increasing Action
Streptozotocin (STZ, 65 mg/kg) was intravenously injected to male SD rats (body weight 200-300 g) to prepare diabetic rats. One month later, STZ-induced diabetic rats were anesthetized with pentobarbital sodium and the blood flow in the hind limb skin was measured with laser blood flowmeter (ALF21R, Advance). The test compound was intravenously administered via catheter dwelled in the carotid arteries, and hind limb skin blood flow increasing action was observed. The blood flow increasing action of the test compound was expressed by increase percentage from the blood flow before administration.

The test system of data set [7] is normal human umberical vascular endothelial cells. Kind of data set: Inhibition of angiogenesis (lumen formation in vascular endothelial cells). The note with it: 18 hours, compared with the control, number rises with inhibition of lumen formation. In kind it is cell-based. On the procedure: Inhibition of Angiogenesis
The inhibition of angiogenesis was evaluated by using the inhibition of lumen formation in vascular endothelial cell as an index. To be specific, normal human umberical vascular endothelial cells (KURABO […] LTD.) were suspended in E-GMUV medium at 5.5×10^4 cells/ml and 400 μl therefrom was added on matrigel plate (EHS sarcoma-derived reconstructed basement membrane, Collaborative Biomedical Products). Then, the test compound (1 mM solution, 4 μl) was added and the cells were incubated at 37° C. under 5% CO2 gas for 18 hours. After the completion of the incubation, the number of lumen per predetermined area was counted under a microscope. Inasmuch as the number of lumen increases by the inhibition of lumen formation, the test compound was evaluated by comparison of the number of lumen with the control.

In data set [8] the test system is smooth muscle cell (SMC) from rat aorta. Kind of data set: Inhibition of growth of vascular smooth muscle cell. It counts as cell-based. The following applies: 48 hours, MTT. Here is the method: Inhibition of Growth of Vascular Smooth Muscle Cell
The separation from the artery of rat and culture of smooth muscle cell (SMC) followed the explant method of Ross (Ross, R. and Glomset, J. A., N. Engl. J. Med., 295, 369-420, 1976). Male wistar rats (10 week old) was slaughtered by cutting the carotid arteries and aorta of thorax was removed. After removal of fat tissues around the tunica externa and peeling of tunica intima, the artery was minced and incubated in 10% fetal bovine serum (FBS)-containing DMEM medium at 37° C. under 5% CO2 gas. Seven days later, the out-grown cells were separated by trypsin treatment, washed with phosphate-buffered saline (PBS) and incubated in 10% FBS-containing DMEM medium in a 80 cm^2 culture flask. The cells of subculture 2 were suspended in 10% FBS-containing DMEM medium at 5×10^4 cells/ml and 100 μl thereof per well was added to 96 well collagen-coated plate, which was incubated at 37° C. under 5% CO2 gas for one day. The test compound was appropriately diluted with dimethyl sulfoxide (DMSO) and added to the 96 well plate. The concentration of DMSO in the medium was adjusted to 1%. After 48 hours, 10 μl of MTT solution (5 mg/ml) was added and, 4 hours later, 10% sodium dodecyl sulfate-0.01 N hydrochloric acid (50 μl) was added. The absorbance at 570 nm was measured the following day by an immunoreader. The SMC growth inhibitory action of the test compound was shown by inhibition percentage calculated by the following formula The results are shown in Table 10.

T1 sequence (Q13464 whole entry): as the sequence (Q13464 whole entry) above

In the case of `N=C(N)NC[C@H]1CC[C@H](C(=O)Nc2ccnc3[nH]ncc23)CC1` [Compound 143.2HCl.H2O, trans-N-(1H-pyrazolo[3,4-b]pyridin-4-yl)-4-guanidinomethylcyclohexanecarboxamide], the figures for the IC50 (in data set [1]; against p160ROCK; on ROCKII) were 1600 nM, 0.88 µM and 0.47 µM, respectively. The inhibition (usually the change of the read-out against control, counted positive when it falls) at 100 µM in data set [2] (concentration 100 μM) was found to be 77%; in the data set with mouse femoral bone, 39.4%. Further, in the data set with ddY mice, the “Acute toxicity (death)” value is reported as “did not cause death”.

Take `C[C@@H](N)c1ccc(C(=O)Nc2ccnc3[nH]ccc23)cc1` [Compound 165.2HCl.3/2H2O, (R)-(+)-N-(1H-pyrrolo[2,3-b]pyridin-4-yl)-4-(1-aminoethyl)benzamide]: the “Inhibition (%)” value in data set [3] turned out to be 100%. In addition, the values for the IC50 in data set [4], in data set [5] and in data set [8] were 51 nM, 66 nM and 38000 nM, respectively. Further, the entries for the “Increase in skin blood flow ± standard error (%)” value in data set [6] (0.03 μg) and in data set [6] (0.1 μg) were 135.8 ± 0.0% and 144.7 ± 0.0%, respectively. Besides, in [2] (concentration 10 μM), the inhibition at 10 µM worked out at 40%. For the same molecule, the “Number of lumen (10 μM)” value in data set [7] turned out to be 222%.
